# Assay results taken from the NIST ThermoML archive (doi:10.1016/j.fluid.2007.01.001).
# Numbers after ± are expanded uncertainties.
# Assays:
# [1] = 101 kPa, Liquid; for viscosity: Capillary tube (Ostwald / Ubbelohde) method; for speed of sound: Frequency=2 MHz, Linear variable-path acoustic interferometer; for mass density: Pycnometric method
# [2] = xn = mol fraction of the nth substance listed; settings: 101 kPa, Liquid, x1 = 1; for viscosity: Capillary tube (Ostwald / Ubbelohde) method; for speed of sound: Frequency=2 MHz, Linear variable-path acoustic interferometer; for mass density: Pycnometric method
structure (smiles),measurement,setting,value
CCCCCC(C)O (configuration not stated) [2-heptanol],viscosity,[1]; 298.15 K,5.088 ± 0.41 mPa·s
same,speed of sound,[1]; 298.15 K,1314 ± 3 m/s
same,mass density,[1]; 298.15 K,813.74 ± 0.69 kg/m3
same,viscosity,[1]; 308.15 K,3.683 ± 0.3 mPa·s
same,speed of sound,[1]; 308.15 K,1274 ± 3 m/s
same,mass density,[1]; 308.15 K,804.88 ± 0.7 kg/m3
CCCCC(C)O (configuration not stated) [2-hexanol],viscosity,[1]; 298.15 K,4.105 ± 0.33 mPa·s
same,speed of sound,[1]; 298.15 K,1290 ± 3 m/s
same,mass density,[1]; 298.15 K,810.84 ± 0.7 kg/m3
same,viscosity,[1]; 308.15 K,2.92 ± 0.23 mPa·s
same,speed of sound,[1]; 308.15 K,1255 ± 3 m/s
same,mass density,[1]; 308.15 K,801.75 ± 0.71 kg/m3
CCCCCCC(C)O (configuration not stated) [2-octanol],viscosity,[1]; 298.15 K,6.429 ± 0.52 mPa·s
same,speed of sound,[1]; 298.15 K,1328 ± 3 m/s
same,mass density,[1]; 298.15 K,817.08 ± 0.58 kg/m3
same,viscosity,[1]; 308.15 K,4.365 ± 0.35 mPa·s
same,speed of sound,[1]; 308.15 K,1292 ± 3 m/s
same,mass density,[1]; 308.15 K,809.89 ± 0.6 kg/m3
Cc1ccccc1 [toluene],viscosity,[1]; 298.15 K,0.554 ± 0.044 mPa·s
same,speed of sound,[1]; 298.15 K,1306 ± 3 m/s
same,mass density,[1]; 298.15 K,862.18 ± 0.73 kg/m3
same,viscosity,[1]; 308.15 K,0.496 ± 0.04 mPa·s
same,speed of sound,[1]; 308.15 K,1270 ± 3 m/s
same,mass density,[1]; 308.15 K,852.79 ± 0.74 kg/m3
Cc1ccccc1 [toluene] + CCCCC(C)O,viscosity,[2]; 298.15 K,0.554 ± 0.044 mPa·s
same,speed of sound,[2]; 298.15 K,1306 ± 3 m/s
same,mass density,[2]; 298.15 K,862.18 ± 0.73 kg/m3
same,viscosity,[2]; 308.15 K,0.496 ± 0.04 mPa·s
same,speed of sound,[2]; 308.15 K,1270 ± 3 m/s
same,mass density,[2]; 308.15 K,852.79 ± 0.74 kg/m3
Cc1ccccc1 [toluene] + CCCCCC(C)O,viscosity,[2]; 298.15 K,0.554 ± 0.044 mPa·s
same,speed of sound,[2]; 298.15 K,1306 ± 3 m/s
same,mass density,[2]; 298.15 K,862.18 ± 0.73 kg/m3
same,viscosity,[2]; 308.15 K,0.496 ± 0.04 mPa·s
same,speed of sound,[2]; 308.15 K,1270 ± 3 m/s
same,mass density,[2]; 308.15 K,852.79 ± 0.74 kg/m3
Cc1ccccc1 [toluene] + CCCCCCC(C)O,viscosity,[2]; 298.15 K,0.554 ± 0.044 mPa·s
same,speed of sound,[2]; 298.15 K,1306 ± 3 m/s
same,mass density,[2]; 298.15 K,862.18 ± 0.73 kg/m3
same,viscosity,[2]; 308.15 K,0.496 ± 0.04 mPa·s
same,speed of sound,[2]; 308.15 K,1270 ± 3 m/s
same,mass density,[2]; 308.15 K,852.79 ± 0.74 kg/m3
